This is an account of results in DBAASP.

SMILES strings stand for the structures. Values after ≈ are worked out from the molar mass of the structure shown. Values joined by “and” are separate entries in the source; they are usually repeats but may differ in a detail not shown here. Identical values can stand only once. Some results are limits rather than exact numbers.

Common to all, as to experiment: ≥ marks a high value that may be exact or a test limit, other limits are often not marked, values filed in µg/mL are converted to µM
In test [1] the test system is Enterococcus faecalis.
Test [2] concerns Escherichia coli W3110.
Test [3] has as its system Pseudomonas aeruginosa PAK.
Test [4] deals with Staphylococcus aureus.
Test [5] deals with Streptococcus mutans UA159.
The test system of test [6] is Streptococcus sanguinis NY101.
Test [7] has as its system Streptococcus sobrinus ATCC 33478.
Test [8] relates to Enterococcus faecium.
Test [9] deals with Escherichia coli O18:K1:H7 Bort.
Test [10] concerns Pseudomonas aeruginosa ATCC 27853.
Test [11] concerns Serratia marcescens.
Test [12] has as its system Streptococcus agalactiae.
Test [13] relates to Acinetobacter baumannii.
Test [14] has as its system Candida albicans ATCC 90028.
The subject of test [15] is Cutibacterium acnes ATCC 11828.
The test system of test [16] is Cutibacterium acnes ATCC 15725.
For test [17], the system named is Cutibacterium acnes ATCC 18380.
Test [18] concerns Cutibacterium acnes ATCC 29903.
Test [19] concerns Cutibacterium acnes ATCC 31766.
For test [20], the system named is Cutibacterium acnes ATCC 32548.
For test [21], the system named is Cutibacterium acnes ATCC 33257.
Test [22] concerns Cutibacterium acnes ATCC 50247.
Test [23] has as its system Escherichia coli ATCC 25726.
Test [24] has as its system Staphylococcus aureus ATCC 25923.
Test [25] relates to Bacillus megaterium Bm11.
The subject of test [26] is Candida albicans.
Test [27] relates to Citrobacter freundii.
Test [28] concerns Escherichia coli ML-35.
The subject of test [29] is Escherichia coli.
Test [30] deals with Klebsiella pneumoniae.
Test [31] deals with Micrococcus luteus.
For test [32], the system named is Pseudomonas aeruginosa.
For test [33], the system named is Salmonella enterica subsp. enterica serovar Typhimurium ATCC 14028.
Test [34] concerns Staphylococcus aureus 710A.
The subject of test [35] is Staphylococcus aureus LT1334.
In test [36] the test system is Staphylococcus aureus LT1338.
For test [37], the system named is Staphylococcus epidermidis LT1324.
Test [38] deals with Staphylococcus haemolyticus.
Test [39] concerns Stenotrophomonas maltophilia.
In test [40] the test system is Bacillus cereus ATCC 11778.
The subject of test [41] is Escherichia coli ATCC 25922.
In test [42] the test system is Listeria monocytogenes ATCC BAA-751.
In test [43] the test system is Pseudomonas aeruginosa ATCC 9027.
For test [44], the system named is Staphylococcus aureus ATCC 29213.
Test [45] relates to Staphylococcus aureus ATCC 43300.

As a reminder, the MIC is the least concentration at which growth counts as inhibited. A lower MIC goes with a more susceptible organism. Regarding `CC[C@H](C)[C@H](NC(=O)[C@H](Cc1ccccc1)NC(=O)[C@H](Cc1cnc[nH]1)NC(=O)[C@H](CCCCN)NC(=O)[C@@H](NC(=O)[C@H](Cc1ccccc1)NC(=O)[C@@H]1CCCN1C(=O)[C@H](CO)NC(=O)[C@@H]1CCCN1C(=O)[C@H](CO)NC(=O)[C@@H]1CCCN1C(=O)[C@H](Cc1ccccc1)NC(=O)[C@H](Cc1cnc[nH]1)NC(=O)[C@H](CC(C)C)NC(=O)[C@H](Cc1cnc[nH]1)NC(=O)[C@H](Cc1ccccc1)NC(=O)[C@H](Cc1cnc[nH]1)NC(=O)[C@@H](N)Cc1ccccc1)[C@@H](C)CC)C(=O)N[C@@H](Cc1cnc[nH]1)C(=O)N[C@@H](CCCN=C(N)N)C(=O)N[C@@H](Cc1ccccc1)C(N)=O` [FHFHLHFPSPSPFIKHFIHRF], the MIC in test [1] is ≥ 93.4 µM; in [2], 23.4 µM (≈ 62.5 µg/mL); in test [3] it was ≥ 46.7 µM; in [4], > 187 µM; in [5], 12 µM (≈ 32 µg/mL); in [6] it was ≥ 46.7 µM. Also, in test [7], the MIC was ≥ 46.7 µM.
Turning to `CC[C@H](C)[C@H](N)C(=O)N[C@@H](CC(C)C)C(=O)N[C@@H](CCCN=C(N)N)C(=O)N[C@@H](C)C(=O)N[C@@H](Cc1c[nH]c2ccccc12)C(=O)N[C@@H](CCCCN)C(=O)N[C@@H](CCCCN)C(=O)N[C@@H](Cc1ccc(O)cc1)C(=O)NCC(=O)N1CCC[C@H]1C(=O)N[C@H](C(=O)N[C@H](C(=O)N[C@H](C(=O)N1CCC[C@H]1C(=O)N[C@H](C(=O)N[C@H](C(=O)N[C@@H](CCCN=C(N)N)C(=O)N[C@H](C(N)=O)[C@@H](C)CC)[C@@H](C)CC)[C@@H](C)CC)C(C)C)[C@@H](C)CC)[C@@H](C)CC` [ILRAWKKYGPIIVPIIRI], the MIC in test [8] is 8 µM (≈ 17.2 µg/mL); in test [9] it was 2 µM (≈ 4.3 µg/mL); in test [10], 8 µM (≈ 17.2 µg/mL); in test [11], 16 µM (≈ 34.4 µg/mL); in test [4], 8 µM (≈ 17.2 µg/mL); in test [12] it was 4 µM (≈ 8.6 µg/mL).
On to `CC[C@H](C)[C@H](NC(=O)[C@H](CCCCN)NC(=O)[C@H](CC(C)C)NC(=O)[C@H](CC(C)C)NC(=O)[C@@H]1CCCN1C(=O)[C@H](CCCCN)NC(=O)[C@H](CC(C)C)NC(=O)[C@H](CC(C)C)NC(=O)CN)C(=O)N[C@@H](C)C(=O)N[C@@H](C)C(=O)N[C@@H](CCCCN)C(=O)N[C@H](C(=O)NCC(=O)N[C@@H](CO)C(=O)N[C@@H](CC(N)=O)C(=O)N[C@@H](CC(C)C)C(=O)N[C@@H](CC(C)C)C(N)=O)C(C)C` [GLLKPLLKIAAKVGSNLL], for which the MIC in [13] turned out to be 2.23 µM (≈ 4.11 µg/mL); in test [14], 25 µM (≈ 46.2 µg/mL); in [15] it was 3 µM (≈ 5.54 µg/mL); in test [16], 6 µM (≈ 11.1 µg/mL); in test [17], 25 µM (≈ 46.2 µg/mL); in test [18], 25 µM (≈ 46.2 µg/mL). Moreover, the minimum inhibitory concentration (MIC) in [19] is 12.5 µM (≈ 23.1 µg/mL); in [20], 6 µM (≈ 11.1 µg/mL); in test [21] it was 6 µM (≈ 11.1 µg/mL); in test [22], 12.5 µM (≈ 23.1 µg/mL); in test [23], 12.5 µM (≈ 23.1 µg/mL); in [24] it was 6 µM (≈ 11.1 µg/mL).
On to `CC[C@H](C)[C@H](NC(=O)[C@@H](NC(=O)[C@H](CCCN=C(N)N)NC(=O)[C@H](C)NC(=O)[C@H](CC(C)C)NC(=O)[C@H](CCCCN)NC(=O)[C@H](CCCN=C(N)N)NC(=O)[C@H](C)NC(=O)[C@H](CC(C)C)NC(=O)[C@H](CCCN=C(N)N)NC(=O)CNC(=O)[C@H](Cc1ccccc1)NC(=O)[C@H](CCCCN)NC(=O)[C@H](CO)NC(=O)[C@H](CC(C)C)NC(=O)[C@H](CC(C)C)NC(=O)CN)C(C)C)C(=O)N1CCC[C@H]1C(=O)N[C@@H](CCCCN)C(=O)N[C@H](C(N)=O)C(C)C` [GLLSKFGRLARKLARVIPKV], for which the MIC is 2 µM (≈ 4.44 µg/mL) in test [25]; > 4 µM in test [26]; 2 µM (≈ 4.44 µg/mL) in test [27]; 1.41 µM (≈ 3.14 µg/mL) in [8]; 1 µM (≈ 2.22 µg/mL) in [28]; 1.41 µM (≈ 3.14 µg/mL) in [29]. Besides, the MIC in test [30] is 1 µM (≈ 2.22 µg/mL); in test [31], 1 µM (≈ 2.22 µg/mL); in test [10], 4 µM (≈ 8.89 µg/mL); in [32], 2 µM (≈ 4.44 µg/mL); in test [33] it was 5.66 µM (≈ 12.6 µg/mL); in test [34], 5.66 µM (≈ 12.6 µg/mL). Further, the minimum inhibitory concentration (MIC) in test [35] was 3 µM (≈ 6.67 µg/mL); in test [36], 4 µM (≈ 8.89 µg/mL); in test [4], 2 µM and 2.45 µM; in test [37], 1.5 µM (≈ 3.33 µg/mL); in test [38] it was 1.5 µM (≈ 3.33 µg/mL); in [39], 1.22 µM (≈ 2.72 µg/mL).
With `CC[C@H](C)[C@H](NC(=O)CNC(=O)[C@H](CCCCN)NC(=O)[C@@H](NC(=O)[C@H](CC(C)C)NC(=O)[C@H](CO)NC(=O)CNC(=O)[C@H](CC(C)C)NC(=O)CNC(=O)[C@H](C)NC(=O)[C@H](CCCCN)NC(=O)[C@H](Cc1ccccc1)NC(=O)[C@@H](NC(=O)[C@H](CCC(=O)O)NC(=O)[C@H](CCCCN)NC(=O)[C@H](CC(C)C)NC(=O)CN)[C@@H](C)CC)C(C)C)C(=O)N[C@@H](C)C(=O)N[C@@H](C)C(=O)N[C@@H](Cc1cnc[nH]1)C(=O)N[C@H](C(=O)N[C@@H](C)C(=O)N[C@@H](CO)C(=O)O)C(C)C` [GLKEIFKAGLGSLVKGIAAHVAS], the minimum inhibitory concentration (MIC) in test [40] is ≥ 250 µM; in test [41], 15.2 µM (≈ 34.5 µg/mL); in test [42], ≥ 125 µM; in test [43] it was 31.3 µM (≈ 70.9 µg/mL); in [33], 62.5 µM (≈ 142 µg/mL); in test [24] it was 250 µM (≈ 567 µg/mL). The minimum inhibitory concentration (MIC) in [44] and in [45] was > 250 µM throughout.
